Patent publication US20240398783A1, “Compounds and Pharmaceutical Compositions Comprising Inhibitors of Amyloid Peptide Interactions with Glycosaminoglycans, Methods of Treatment and Use Thereof” (Gismo Therapeutics, Inc., priority 2021, published 2024)
Structures can show the parent of a compound that is named as a salt.

These compounds were tested against T1, SAA binding to purified THP-1 cell membranes (Homo sapiens, UniProt P0DJI8) (assay: Inhibition of SAA binding to purified cell membranes (ELISA)). Details: purified cell membranes (THP-1 per Example 54), hydrochloride, read-out: Serum Amyloid A/Membrane Activity (IC-50).
T1 sequence (P0DJI8 19-122): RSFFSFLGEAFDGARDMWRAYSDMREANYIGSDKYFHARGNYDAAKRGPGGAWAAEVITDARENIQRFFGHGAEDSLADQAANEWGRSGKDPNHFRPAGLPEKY
Description: THP-1 (human acute monocyte leukemia cell line; ATCC cat. no. TIB-202) cell membranes were prepared by differential centrifugation as follows. THP-1 cell was grown in RPMI 1640 media (GIBCO Cat. No. 21875034, supplemented with 10% FBS) at 37 degree Celsius 5% CO2 atmosphere, harvested, and stored at −80 degree Celsius. Frozen THP-1 cells were homogenized in HEPES-Buffered sucrose (0.32M sucrose, 4 mM HEPES pH7.4, protease inhibitors) with a motor driven glass-teflon homogenizer. After removing nuclear and cell debris by centrifugation of homogenates at 1,000×g for 10 min at 4 degree Celsius, post-nuclear supernatant was centrifuged at 10,000×g for 15 minutes to remove mitochondrial fraction. Resulting supernatant was centrifuged at 100,000×g for 30 minutes to yield the crude membrane pellet. Crude membrane pellet was re-suspended in 0.32M sucrose, then centrifuged again at 100,000 xg for 30 minutes to yield washed membrane pellet. Membrane pellet was resuspended in sterile PBS (pH7.4), quickly frozen and kept in aliquots at −80 degrees Celsius. This preparation contains mostly cell membranes. Protein concentration was measured with BCA protein assay kit (Pierce Cat. No. 23227). The binding assay was performed as described in Example 48, with the following modifications. Following to coating the plates with purified human THP-1 cell membranes at 0.01 mg/ml concentration, plates were washed and blocked with 2% milk as described. The compounds were dissolved in DMSO at 10 mM final concentration and further diluted prior to assay. DMSO concentration in the screening well was up to 2%. Individual compounds were co-incubated with SAA on plates coated with cell membranes. SAA from PreProtech (NJ, USA, Cat. No. 300-53) was dissolved in DMSO, quickly frozen and kept in aliquots at −80 degrees Celsius. SAA dissolved in Tris Buffer (pH 6.5, supplemented with BSA, 0.1%) was added to the ELISA plate (100 μl per well) and incubated for 2 hours at RT with gentle shaking. Following the incubation, the plate was washed with de-ionized water and three times with TBS (pH 6.5) plus Tween. Bound SAA was detected by Anti-SAA Monoclonal Antibody (R&D System Cat. No. MAB30192, followed by secondary anti-IgG antibody conjugated to HRP (R&D System, Cat. No. HAF007). Antibody was diluted in TBS antibody buffer (pH6.5 supplemented with 1% BSA). Following each incubation with antibody, the plate was washed with de-ionized water and three times with TBS (pH6.5) wash buffer containing 0.1% Tween. Following to color development with TMB, as described in Example 49, the Optical Density of the samples was measured at 450 nm using an ELISA plate reader. Following color development, the % inhibition compared to control (no compound, DMSO control) for every compound was determined.
For each compound IC-50 value is shown in μM (micromolar). In some cases IC-50 was not measured and % inhibition at 30 μM compound concentration is shown instead. […] All assays were done on 96-well plates in duplicates and experiments were repeated at least twice. In the Table, the following abbreviations are used: A: compounds that inhibited>30% at 30 μM concentrations; B: compounds that inhibited<30% at 30 μM concentrations; NT: compounds for which inhibition curve was not obtained.

SMILES	IC50 [µM]
C/C(=N\Nc1ncnc2cc(Cl)ccc12)c1ccc(-n2cc(C)nc2C)nc1 [Compound 27, (E)-7-chloro-4-(2-(1-(6-(2,4-dimethyl-1H-imidazol-1-yl)pyridin-3-yl)ethylidene)hydrazineyl)quinazoline hydrochloride]	14

Same assay, conditions: purified cell membranes (THP-1 per Example 54), read-out: Serum Amyloid A/Membrane Activity (IC-50)

IC50 [µM]	SMILES
12.3	Cc1cc(-n2ccnc2)ccc1/C=N/Nc1ccnc2cc(Cl)ccc12 [Compound 1, (E)-4-((E)-(4-(1H-imidazol-1-yl)-2-methylbenzylidene)hydrazono)-7-chloro-1,4-dihydroquinoline]
47.8	C/C(=N\Nc1ncnc2cc(F)ccc12)c1ccc(-n2cnc(C)c2C)nc1 [Compound 21, (E)-4-(2-(1-(6-(4,5-dimethyl-1H-imidazol-1-yl)pyridin-3-yl)ethylidene)hydrazineyl)-7-fluoroquinazoline]
22.9	CC(=NNc1ncnc2cc(Cl)ccc12)c1ccnc(-n2cnc(C)c2C)c1 [Compound 28, 7-chloro-4-(2-(1-(2-(4,5-dimethyl-1H-imidazol-1-yl)pyridin-4-yl)ethylidene)hydrazineyl)quinazoline]
13.2	Clc1ccc2c(Nc3ccc(-n4ccnc4)nc3)ncnc2c1 [Compound 41, N-(6-(1H-imidazol-1-yl)pyridin-3-yl)-7-chloroquinazolin-4-amine]

SMILES	IC50 [µM]
C/C(=N\Nc1ncnc2cc(Cl)ccc12)c1ccc(-n2cc(C)nc2C)nc1 [Compound 18, (E)-7-chloro-4-(2-(1-(6-(2,4-dimethyl-1H-imidazol-1-yl)pyridin-3-yl)ethylidene)hydrazineyl)quinazoline phosphoric acid salt]	24
C/C(=N\Nc1nncc2cc(Cl)ccc12)c1ccc(-n2cc(C)nc2C)nc1 [Compound 24, (E)-6-chloro-1-(2-(1-(6-(2,4-dimethyl-1H-imidazol-1-yl)pyridin-3-yl)ethylidene)hydrazineyl)phthalazine]	8.22

Same assay, conditions: read-out: Serum Amyloid A/Membrane Activity (IC-50), purified cell membranes (THP-1 per Example 54)

SMILES	IC50 [µM]
COc1cc2nccc(N/N=C/c3ccc(-n4ccnc4)c(OC)c3)c2cc1OC [Compound 13, (E)-4-(2-(4-(1H-imidazol-1-yl)-3-methoxybenzylidene)hydrazineyl)-6,7-dimethoxyquinoline phosphate]	44.5
Clc1ccc2c(N/N=C/c3ccc(-n4ccnc4)nc3)ccnc2c1 [Compound 14, (E)-4-(2-((6-(1H-imidazol-1-yl)pyridin-3-yl)methylene)hydrazineyl)-7-chloroquinoline hydrochloride]	27.5
Cc1ncn(-c2ccc(/C=N\Nc3ncnc4cc(Cl)ccc34)cn2)c1C [Compound 15, 7-chloro-4-(2-((6-(4,5-dimethyl-1H-imidazol-1-yl)pyridin-3-yl)methylene)hydrazineyl)quinazoline hydrochloride]	32.5
C/C(=N\Nc1ncnc2cc(Cl)ccc12)c1ccc(-n2cnc(C)c2C)nc1 [Compound 16, 7-chloro-4-(2-(1-(6-(4,5-dimethyl-1H-imidazol-1-yl)pyridin-3-yl)ethylidene)hydrazineyl)quinazoline phosphate]	9.93
Cc1ncn(-c2ccc(Nc3ncnc4cc(Cl)ccc34)cn2)c1C [Compound 25, 7-chloro-N-(6-(4,5-dimethyl-1H-imidazol-1-yl)pyridin-3-yl)quinazolin-4-amine]	22
COc1cc(Nc2nncc3cc(Cl)ccc23)cnc1-n1cnc(C)c1C [Compound 31, 6-chloro-N-(6-(4,5-dimethyl-1H-imidazol-1-yl)-5-methoxypyridin-3-yl)phthalazin-1-amine phosphoric acid salt]	70.8
Clc1ccc2c(Nc3ccc(-n4cncn4)nc3)ncnc2c1 [Compound 34, N-(6-(1H-1,2,4-triazol-1-yl)pyridin-3-yl)-7-chloroquinazolin-4-amine phosphoric acid salt]	8.66
CC(=NNc1ccnc2cc(Cl)ccc12)c1ccc(-n2ccnc2)cc1 [Compound 36, 4-(2-(1-(4-(1H-imidazol-1-yl)phenyl)ethylidene)hydrazineyl)-7-chloroquinoline phosphate]	15.3
Clc1ccc2c(N/N=C/c3ccc(-n4ccnc4)cc3)ccnc2c1 [Compound 38, 4-(2-(4-(1H-imidazol-1-yl)benzylidene)hydrazineyl)-7-chloroquinoline dihydrochloride]	23.6
Clc1ccc2c(Nc3ccc(-n4cncn4)nc3)ccnc2c1 [Compound 44, N-(6-(1H-1,2,4-triazol-1-yl)pyridin-3-yl)-7-chloroquinolin-4-amine]	11.4
